The nature of series [1]: Inhibition of Human rhinovirus 2 purified 3C protease preincubated for 30 mins measured after 1 hrs by FRET assay. Also on record: species or system rhinovirus A2.
Series [2] has as its system rhinovirus A2. The series is described as follows: Inhibition of Human rhinovirus 2 purified 3C protease at 100 uM preincubated for 30 mins measured after 1 hrs by FRET assay.
Series [3] is described as follows: Binding affinity to Human rhinovirus 2 purified 15N-labeled 3C protease after 50 mins by NMR assay. Further details: species or system rhinovirus A2.
Series [4] is described as follows: Solubility of the compound. Format: physicochemical.
For series [5], the system named is rhinovirus A2. Description: Binding affinity to Human rhinovirus 2 purified 15N-labeled 3C protease at 500 uM after 50 mins by NMR assay.

What is called pIC50 is the negative decadic logarithm of the IC50, by convention in mol/L. Read a low pIC50 as a high IC50. The inhibition is the relative decrease from the control value, in per cent. Low values mean little suppression, high ones strong suppression. By pKd is commonly meant the negative decadic logarithm of the Kd, by convention in mol/L. Low values mean a high Kd, high ones a low Kd. The solubility is how much of the substance goes into solution per volume.

Structures are written as SMILES. Values after ≈ are worked out from the molar mass of the structure shown. Active and inactive are the calls of the source. No cut-off for these calls is given here.

In series [1], `N#Cc1ccc2[nH]c(-c3cccnc3)cc(=O)c2c1` came in with a negative logarithm of the IC50 (pIC50) of 4. Further, the inhibition in the series on rhinovirus A2 [2] stood at 50%.
In the case of `O=c1cc(-c2ccccc2)oc2ccccc12` [FLAVONE], in series [3], the negative logarithm of the Kd (pKd) was 3.
Take `Oc1cc(-c2ccccc2)nc2ccccc12`: the concentration in solution in series [4] (solubility) came to 100 µM (≈ 22.1 µg/mL). In series [3], the negative-log Kd (pKd) stood at 3.7.
Compound `c1ccc(-c2ccc3ccccc3n2)cc1` [2-PHENYLQUINOLINE] gave a negative logarithm of the Kd (pKd) in series [3] of under 3.
In the case of `COc1cc(-c2ccccc2)nc2ccccc12`, the negative-log Kd (pKd) in series [3] is listed as under 3.
As for `CCOC(=O)CCc1ccc2[nH]c(-c3cccnc3)cc(=O)c2c1`, in the series with rhinovirus A2 [2], the inhibition stood at 0%. In addition, the result in the series with rhinovirus A2 [5] was inactive.
As for `O=c1cc(-c2cccnc2)[nH]c2cc(C(O)c3ccccc3)ccc12` (racemic), the pIC50 in series [1] came out at 4.7. In addition, the inhibition in the series with rhinovirus A2 [2] came to 80%.
`CC(=O)c1ccc2[nH]c(-c3cccnc3)cc(=O)c2c1` registered an inhibition with rhinovirus A2 [2] of 25%.
On to `CCOC(=O)/C=C/c1ccc2[nH]c(-c3cccnc3)cc(=O)c2c1`, for which the negative-log IC50 (pIC50) in series [1] is on record as 5.3. For the same compound, the inhibition in the series with rhinovirus A2 [2] was over 90%.
In turn, `Cc1ccc2c(=O)cc(-c3cccnc3)[nH]c2c1` had an inhibition in the series on rhinovirus A2 [2] of 40%.
Take `Cc1cc2[nH]c(-c3ccccc3)cc(=O)n2n1`: in the series with rhinovirus A2 [2], the inhibition turned out to be 43%. In series [4], this compound came in with a solubility of over 900 µM.
In turn, `CNC(=O)c1ccc2c(=O)cc(-c3cccnc3)[nH]c2c1` yielded an inhibition in the series on rhinovirus A2 [2] of 40%.
`O=c1cc(-c2cccnc2)[nH]c2ccccc12` gave an inhibition in the series on rhinovirus A2 [2] of 35%. In addition, the solubility in series [4] was over 1300 µM. Also, the negative-log Kd (pKd) in series [3] came to 3.5.
On to `Nc1cc(-c2ccccc2)nc2ccccc12`, for which the negative logarithm of the Kd (pKd) in series [3] turned out to be 3.
For the compound `O=C(O)/C=C/c1ccc2[nH]c(-c3cccnc3)cc(=O)c2c1`, the pIC50 in series [1] worked out at 4.2. Also, the inhibition with rhinovirus A2 [2] was found to be 70%.
Take `CNC(=O)Cc1ccc2c(=O)cc(-c3cccnc3)[nH]c2c1`: the inhibition with rhinovirus A2 [2] came to 45%.
For the compound `Cn1c(-c2ccccc2)cc(=O)c2ccccc21`, the pKd in series [3] turned out to be 3.
For the compound `O=Cc1ccc2[nH]c(-c3cccnc3)cc(=O)c2c1`, the pIC50 in series [1] is given as 6. The compound also showed an inhibition in the series on rhinovirus A2 [2] of over 95%.
In series [1], `O=c1cc(-c2cccnc2)[nH]c2cc(Cc3ccccc3)ccc12` gave a negative logarithm of the IC50 (pIC50) of 5. The compound further returned an inhibition with rhinovirus A2 [2] of 100%. Also, in series [4], the solubility was 1 µM (≈ 0.312 µg/mL).
In turn, `COc1ccc2c(=O)cc(-c3cccnc3)[nH]c2c1` had an inhibition in the series with rhinovirus A2 [2] of under 10%.
